Measured values from patent US9808003B2, “Herbicidally active 2-(substituted-phenyl)-cyclopentane-1,3-dione compounds and derivatives thereof” (Syngenta Limited, priority 2013, dated 2017).

Key:
Assay in all cases: Test 1A glasshouse assay, post-emergence herbicidal activity
Type in all cases: in vivo
[1] = tested on: Alopecurus myosuroides (ALOMY); conditions: application rate 250 g/ha, 13 days after application, visual (100%=total damage; 0%=no damage); for pest or weed control at 250 g/ha: Alopecurus myosuroides, 312 h, read-out: Post-emergence Herbicidal Activity (% Phytotoxicity) ALOMY
Method in brief: (§1)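 Post-emergence: plants sprayed after 8 days' glasshouse growth (24/16° C, 14 h light, 65% humidity) with acetone/water (50:50) formulation containing 0.5% Tween 20. Visual % phytotoxicity (0 = none, 100 = total damage) scored 13 days after application.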

Avena fatua (AVEFA) = conditions: Avena fatua, 312 h, application rate 250 g/ha, 13 days after application, visual (100%=total damage; 0%=no damage), read-out: Post-emergence Herbicidal Activity (% Phytotoxicity) AVEFA
Method in brief: as §1

[2] = tested on: Echinochloa crus-galli (ECHCG); conditions: Echinochloa crus-galli, 312 h, application rate 250 g/ha, 13 days after application, visual (100%=total damage; 0%=no damage), read-out: Post-emergence Herbicidal Activity (% Phytotoxicity) ECHCG
Method in brief: as §1

Lolium perenne (LOLPE) = conditions: Lolium perenne, 312 h, application rate 250 g/ha, 13 days after application, visual (100%=total damage; 0%=no damage), read-out: Post-emergence Herbicidal Activity (% Phytotoxicity) LOLPE
Method in brief: as §1

| Compound | pest or weed control at 250 g/ha [1] [%] | pest or weed control at 250 g/ha (Avena fatua (AVEFA)) [%] | pest or weed control at 250 g/ha [2] [%] | pest or weed control at 250 g/ha (Lolium perenne (LOLPE)) [%] | Post-emergence Herbicidal Activity (% Phytotoxicity) ALOMY [1] [%] |
| --- | --- | --- | --- | --- | --- |
| Cc1cc(-n2cc(C#N)cn2)cc(C)c1C1C(=O)CC(CCNC(=O)c2ccccn2)C1=O (stereo not drawn) [Compound A142, N-[2-[3-[4-(4-cyanopyrazol-1-yl)-2,6-dimethyl-phenyl]-2,4-dioxo-cyclopentyl]ethyl]pyridine-2-carboxamide] | 100 | 90 | 100 | 100 | – |
| Cc1cc(C)c(C2C(=O)CC(CCNC(=O)c3nc(Cl)sc3C)C2=O)c(C)c1 (stereo not drawn) [Compound A143] | 90 | 90 | 100 | 100 | – |
| Cc1cc(Cl)c(C2C(=O)CC(CCNC(=O)c3ncccc3F)C2=O)c(Cl)c1 (stereo not drawn) [Compound A144] | 30 | 90 | 100 | 90 | – |
| Cc1cc(C)c(C2C(=O)CC(CCNC(=O)c3cc(Cl)cc(Cl)n3)C2=O)c(C)c1 (stereo not drawn) [Compound A146] | 60 | 40 | 100 | 70 | – |
| Cc1cc(C)c(C2C(=O)CC(CCNC(=O)c3cccc(C#N)n3)C2=O)c(C)c1 (stereo not drawn) [Compound A147] | 60 | 60 | 60 | 70 | – |
| Cc1cc(C)c(C2C(=O)CC(CCNC(=O)c3cc(C#N)ccn3)C2=O)c(C)c1 (stereo not drawn) [Compound A148] | 70 | 90 | 90 | 90 | – |
| Cc1cc(C)c(C2C(=O)CC(CCNC(=O)c3nc(F)ccc3Br)C2=O)c(C)c1 (stereo not drawn) [Compound A149] | 100 | 100 | 100 | 100 | – |
| Cc1cc(C)c(C2C(=O)CC(CCNC(=O)c3ncc(C#N)cc3Cl)C2=O)c(C)c1 (stereo not drawn) [Compound A150] | 70 | 90 | 80 | 80 | – |
| Cc1cc(C)c(C2C(=O)CC(CCNC(=O)c3cccnc3F)C2=O)c(C)c1 (stereo not drawn) [Compound A151] | 90 | 90 | 90 | 90 | – |
| Cc1cc(C)c(C2C(=O)CC(CCNC(=O)c3cccnc3C(F)(F)F)C2=O)c(C)c1 (stereo not drawn) [Compound A152] | 80 | 70 | 80 | 70 | – |
| Cc1cc(-n2cc(Cl)cn2)cc(C)c1C1C(=O)CC(CCNC(=O)c2cc(Br)ccn2)C1=O (stereo not drawn) [Compound A154] | 100 | 100 | 100 | 100 | – |
| Cc1cc(-n2cc(Cl)cn2)cc(C)c1C1C(=O)CC(CCNC(=O)c2ccc(Cl)cn2)C1=O (stereo not drawn) [Compound A155] | 100 | 100 | 100 | 100 | – |
| Cc1ccnc(C(=O)NCCC2CC(=O)C(c3c(C)cc(-n4cc(Cl)cn4)cc3C)C2=O)c1 (stereo not drawn) [Compound A156] | 50 | 90 | 100 | 90 | – |
| Cc1cc(C)c(C2C(=O)CC(CCNC(=O)c3cncc(Cl)c3)C2=O)c(C)c1 (stereo not drawn) [Compound A157] | 70 | 70 | 90 | 70 | – |
| Cc1cc(C)c(C2C(=O)CC(CCNC(=O)c3ccc(F)nc3)C2=O)c(C)c1 (stereo not drawn) [Compound A158] | 80 | 90 | 70 | 80 | – |
| Cc1cc(C)c(C2C(=O)CC(CCNC(=O)c3nn(C)c(Cl)c3C)C2=O)c(C)c1 (stereo not drawn) [Compound A160] | 90 | 100 | 100 | 90 | – |
| Cc1cc(C)c(C2C(=O)CC(CCNC(=O)c3c(Cl)c(C(F)(F)F)nn3C)C2=O)c(C)c1 (stereo not drawn) [Compound A161] | 90 | 100 | 100 | 100 | – |
| Cc1cc(C)c(C2C(=O)CC(CCNC(=O)c3cc(C4CC4)on3)C2=O)c(C)c1 (stereo not drawn) [Compound A162] | 70 | 90 | 90 | 100 | – |

| Compound | pest or weed control at 250 g/ha [1] [%] | pest or weed control at 250 g/ha (Avena fatua (AVEFA)) [%] | pest or weed control at 250 g/ha [2] [%] | pest or weed control at 250 g/ha (Lolium perenne (LOLPE)) [%] | Post-emergence Herbicidal Activity (% Phytotoxicity) ALOMY [1] [%] |
| --- | --- | --- | --- | --- | --- |
| Cc1cc(C)c(C2C(=O)CC(CCNC(=O)c3nnsc3C)C2=O)c(C)c1 (stereo not drawn) [Compound A164] | 90 | 100 | 100 | 90 | – |
| O=C(NCCC1CC(=O)C(c2c(Cl)cc(-c3ccc(F)cc3)cc2Cl)C1=O)c1cccc(F)n1 (stereo not drawn) [Compound A165] | 90 | 100 | 100 | 100 | – |
| Cc1cc(C)c(C2C(=O)CC(CCNC(=O)c3ccc(F)nc3F)C2=O)c(C)c1 (stereo not drawn) [Compound A166] | 80 | 90 | 60 | 90 | – |
| Cc1cc(C)c(C2C(=O)CC(CCNC(=O)c3ccc(C)nc3Cl)C2=O)c(C)c1 (stereo not drawn) [Compound A167] | 60 | 30 | 90 | 70 | – |
| Cc1cc(C)c(C2C(=O)CC(CCNC(=O)c3cccnc3Br)C2=O)c(C)c1 (stereo not drawn) [Compound A168] | 60 | 80 | 80 | 70 | – |
| Cc1cc(-n2cc(Cl)nn2)cc(C)c1C1C(=O)CC(CCNC(=O)c2ccccn2)C1=O (stereo not drawn) [Compound A170, N-[2-[3-[4-(4-chlorotriazol-1-yl)-2,6-dimethyl-phenyl]-2,4-dioxo-cyclopentyl]ethyl]pyridine-2-carboxamide] | 90 | 100 | 100 | 90 | 90 |
| Cc1cc(-n2ccnn2)cc(C)c1C1C(=O)CC(CCNC(=O)c2ccccn2)C1=O (stereo not drawn) [Compound A171] | 0 | 10 | 60 | 10 | – |
| Cc1cc(C)c(C2C(=O)CC(CCNC(=O)c3sc(C(F)(F)F)nc3C(F)(F)F)C2=O)c(C)c1 (stereo not drawn) [Compound A172] | 90 | 90 | 100 | 100 | – |
| Cc1cc(C)c(C2C(=O)CC(CCNC(=O)c3cc(C(F)(F)F)nn3C)C2=O)c(C)c1 (stereo not drawn) [Compound A173] | 100 | 100 | 100 | 100 | – |
| COCc1nc(C2CC2)c(C(=O)NCCC2CC(=O)C(c3c(C)cc(C)cc3C)C2=O)s1 (stereo not drawn) [Compound A174] | 90 | 100 | 90 | 100 | – |
| Cc1cc(C)c(C2C(=O)CC(CCNC(=O)c3nn(C)c(C)c3Cl)C2=O)c(C)c1 (stereo not drawn) [Compound A177] | 100 | 90 | 100 | 90 | – |
| Cc1cc(C)c(C2C(=O)CC(CCNC(=O)c3oc(C)nc3C)C2=O)c(C)c1 (stereo not drawn) [Compound A178] | 70 | 90 | 80 | 100 | – |
| Cc1cc(C)c(C2C(=O)CC(CCNC(=O)c3c(C)noc3C)C2=O)c(C)c1 (stereo not drawn) [Compound A179] | 70 | 100 | 80 | 70 | – |
| Cc1cc(C)c(C2C(=O)CC(CCNC(=O)c3snnc3C)C2=O)c(C)c1 (stereo not drawn) [Compound A180] | 70 | 80 | 90 | 80 | – |
| Cc1cc(C)c(C2C(=O)CC(CCNC(=O)c3ocnc3C)C2=O)c(C)c1 (stereo not drawn) [Compound A181] | 80 | 100 | 80 | 90 | – |
| Cc1cc(C)c(C2C(=O)CC(CCNC(=O)c3nc(C)sc3C)C2=O)c(C)c1 (stereo not drawn) [Compound A182] | 80 | 90 | 90 | 80 | – |
| Cc1cc(C)c(C2C(=O)CC(CCNC(=O)c3sc(C)nc3C(F)F)C2=O)c(C)c1 (stereo not drawn) [Compound A183] | 60 | 60 | 90 | 90 | – |
